Laboratory results published in patent US20160039880A1 (priority 2012, published 2016).
Converted amounts (≈) assume the structure as drawn. Like-named read-outs stand apart in the source and are kept apart here.

How the values were obtained:
[1] = target: T1, Human recombinant cyclophilin A (Cyp A) (Homo sapiens, UniProt P62937);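 note: cis to trans isomerization of SUC-AAPF-pNA by 2 nM enzyme, read as absorbance at 330 nm over 300 s at 10 °C, catalytic rate corrected for uncatalyzed background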
[2] = target: T1, Human recombinant cyclophilin A (Cyp A); assay: Protease-free PPIase assay;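 note: cis to trans isomerization of SUC-AAPF-pNA by 2 nM enzyme, read as absorbance at 330 nm over 300 s at 10 °C, catalytic rate corrected for uncatalyzed background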
[3] = Water Solubility Assay (measured in pH 7.8 buffer); assay type: physicochemical; details: kinetic from dmso stock;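 note: precipitation onset detected as rise in absorbance at 650 nm across increasing concentrations, after shaking for 18 h, blank wells receiving DMSO only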
[4] = 35 mM HEPES buffer pH 7.8, 25 °C, aqueous buffer, pH 7.8 buffer, read-out: Water Solubility Assay

T1 sequence (P62937 whole entry): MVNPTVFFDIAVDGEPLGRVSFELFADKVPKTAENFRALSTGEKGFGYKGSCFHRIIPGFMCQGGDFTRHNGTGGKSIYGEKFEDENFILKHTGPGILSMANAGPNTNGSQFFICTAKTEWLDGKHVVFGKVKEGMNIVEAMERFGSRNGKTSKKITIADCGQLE

SMILES	Ki [1]	Ki [2]	solubility at 18 h ([3]; 25 °C, pH 7.8, aqueous buffer)	solubility at 18 h [3, 4]
CC[C@H]1NC(=O)[C@@H]([C@H](O)[C@H](C)CCN2CCOCC2)N(C)C(=O)[C@@H](C(C)C)N(C)C(=O)[C@@H](CC(C)C)N(C)C(=O)[C@@H](CC(C)C)N(C)C(=O)[C@H](C)NC(=O)[C@@H](C)NC(=O)[C@@H](CC(C)C)N(C)C(=O)[C@@H](C(C)C)NC(=O)[C@H](CC(C)C)N(C)C(=O)[C@@H](C)N(C)C1=O [Compound F, [(3R,4R,5S)-4-(hydroxy)-3-methyl-5-(methylamino)-1-(morpholin-4-yl)hexanoic acid]^1[(R)-Me-Sar]^3 cyclosporin A]	4.5 nM			
CC[C@H]1NC(=O)[C@@H]([C@H](O)[C@H](C)CCN2CCSCC2)N(C)C(=O)[C@@H](C(C)C)N(C)C(=O)[C@@H](CC(C)C)N(C)C(=O)[C@@H](CC(C)C)N(C)C(=O)[C@H](C)NC(=O)[C@@H](C)NC(=O)[C@@H](CC(C)C)N(C)C(=O)[C@@H](C(C)C)NC(=O)[C@H](CC(C)C)N(C)C(=O)[C@@H](C)N(C)C1=O [Compound J, [(3R,4R,5S)-4-Hydroxy-3-methyl-5-(methylamino)-1-(thiomorpholino)-hexanoic acid]^1[(R)-Me-Sar]^3 cyclosporin A]	3.7 nM			
CC[C@H]1NC(=O)[C@@H]([C@H](O)[C@H](C)CCN(C)Cc2cc(C(F)(F)F)nn2C)N(C)C(=O)[C@@H](C(C)C)N(C)C(=O)[C@@H](CC(C)C)N(C)C(=O)[C@@H](CC(C)C)N(C)C(=O)[C@H](C)NC(=O)[C@@H](C)NC(=O)[C@@H](CC(C)C)N(C)C(=O)[C@@H](C(C)C)NC(=O)[C@H](CC(C)C)N(C)C(=O)[C@@H](C)N(C)C1=O [Compound DO, [(3R,4R,5S)-4-Hydroxy-3-methyl-5-(methylamino)-1-({1-methyl-3-trifluoromethyl-2H-pyrazol-5-ylmethyl}-methylamino)-hexanoic acid]^1[(R)-methyl-Sar]^3 cyclosporin A]		2.8 nM		10 to 25 µM (≈ 13.8 to 34.5 µg/mL)
CC(C)CC1C(=O)NC(C(C)C)C(=O)N(C)C(CC(C)C)C(=O)NC(C)C(=O)NC(C)C(=O)N(C)C(CC(C)C)C(=O)N(C)C(CC(C)C)C(=O)N(C)C(C(C)C)C(=O)N(C)C(C(O)C(C)CCN2CCOCC2)C(=O)NC(C(C)C)C(=O)N(C)CC(=O)N1C [Compound AN, [(3R,4R,5S)-4-(hydroxy-3-methyl-5-(methylamino)-1-N-morpholino-hexanoic acid]^1 cyclosporin D]	15 nM			
CC[C@H]1NC(=O)[C@@H]([C@H](O)[C@H](C)CCN(C)Cc2ccnn2C)N(C)C(=O)[C@@H](C(C)C)N(C)C(=O)[C@@H](CC(C)C)N(C)C(=O)[C@@H](CC(C)C)N(C)C(=O)[C@H](C)NC(=O)[C@@H](C)NC(=O)[C@@H](CC(C)C)N(C)C(=O)[C@@H](C(C)C)NC(=O)[C@H](CC(C)C)N(C)C(=O)[C@@H](C)N(C)C1=O [Compound DJ, [(3R,4R,5S)-4-Hydroxy-3-methyl-5-(methylamino)-1-({2-methyl-2H-pyrazol-3-ylmethyl}-methylamino)-hexanoic acid]^1[(R)-methyl-Sar]^3 cyclosporin A]		5.4 nM		> 100 µM
CC[C@H]1NC(=O)[C@@H]([C@H](O)[C@H](C)CCN2CCOC(C)(C)C2)N(C)C(=O)[C@@H](C(C)C)N(C)C(=O)[C@@H](CC(C)C)N(C)C(=O)[C@@H](CC(C)C)N(C)C(=O)[C@H](C)NC(=O)[C@@H](C)NC(=O)C(CC(C)C)N(C)C(=O)[C@@H](C(C)C)NC(=O)[C@H](CC(C)C)N(C)C(=O)[C@@H](C)N(C)C1=O (stereo partly drawn) [Compound DS, [(3R,4R,5S)-1-(3,3-Dimethyl-morpholin-4-yl)-4-hydroxy-3-methyl-5-(methylamino)-hexanoic acid]^1[(R)-methyl-Sar]^3 cyclosporin A]		12 nM	75 to 100 µM (≈ 97.8 to 130 µg/mL)	
CC[C@H]1NC(=O)[C@@H]([C@H](O)[C@H](C)CCN2CCOC(c3ccccc3)C2)N(C)C(=O)[C@@H](C(C)C)N(C)C(=O)[C@@H](CC(C)C)N(C)C(=O)[C@@H](CC(C)C)N(C)C(=O)[C@H](C)NC(=O)[C@@H](C)NC(=O)C(CC(C)C)N(C)C(=O)[C@@H](C(C)C)NC(=O)[C@H](CC(C)C)N(C)C(=O)[C@@H](C)N(C)C1=O (stereo partly drawn) [Compound DZ, [(3R,4R,5S)-4-Hydroxy-3-methyl-5-(methylamino)-1-(2-phenyl-morpholin-4-yl)-hexanoic acid]^1[(R)-methyl-Sar]^3 cyclosporin A]		6 nM		25 to 50 µM (≈ 33.8 to 67.6 µg/mL)

Next, values leading:

Ki [1]	Ki [2]	solubility at 18 h ([3]; 25 °C, pH 7.8, aqueous buffer)	solubility at 18 h [3, 4]	SMILES
28 nM				CC[C@H]1NC(=O)[C@@H]([C@H](O)[C@H](C)CCNCCOC)N(C)C(=O)[C@@H](C(C)C)N(C)C(=O)[C@@H](CC(C)C)N(C)C(=O)[C@@H](CC(C)C)N(C)C(=O)[C@H](C)NC(=O)[C@@H](C)NC(=O)[C@@H](CC(C)C)N(C)C(=O)[C@@H](C(C)C)NC(=O)[C@H](CC(C)C)N(C)C(=O)[C@@H](C)N(C)C1=O [Compound AF, [(3R,4R,5S)-4-Hydroxy-3-methyl-5-(methylamino)-1-(2-methoxyethylamino)-hexanoic acid]^1[(R)-methyl-Sar]^3 cyclosporin A]
46 nM				CC[C@H]1NC(=O)[C@@H]([C@H](O)[C@H](C)CCN2CCN(C)CC2)N(C)C(=O)[C@@H](C(C)C)N(C)C(=O)[C@@H](CC(C)C)N(C)C(=O)[C@@H](CC(C)C)N(C)C(=O)[C@H](C)NC(=O)[C@@H](C)NC(=O)[C@@H](CC(C)C)N(C)C(=O)[C@@H](C(C)C)NC(=O)[C@H](CC(C)C)N(C)C(=O)CN(C)C1=O [Compound LL]
6.1 nM				CC[C@H]1NC(=O)[C@@H]([C@H](O)[C@H](C)CCN2CCNC(=O)C2)N(C)C(=O)[C@@H](C(C)C)N(C)C(=O)[C@@H](CC(C)C)N(C)C(=O)[C@@H](CC(C)C)N(C)C(=O)[C@H](C)NC(=O)[C@@H](C)NC(=O)[C@@H](CC(C)C)N(C)C(=O)[C@@H](C(C)C)NC(=O)[C@H](CC(C)C)N(C)C(=O)[C@@H](C)N(C)C1=O [Compound N, [(3R,4R,5S)-4-hydroxy-3-methyl-5-(methylamino)-1-(N-3-piperazinone)-hexanoic acid]^1[(R)-Me-Sar]^3 cyclosporin A]
3.2 nM				CC[C@H]1NC(=O)[C@@H]([C@H](O)[C@H](C)CCN2CCS(=O)(=O)CC2)N(C)C(=O)[C@@H](C(C)C)N(C)C(=O)[C@@H](CC(C)C)N(C)C(=O)[C@@H](CC(C)C)N(C)C(=O)[C@H](C)NC(=O)[C@@H](C)NC(=O)[C@@H](CC(C)C)N(C)C(=O)[C@@H](C(C)C)NC(=O)[C@H](CC(C)C)N(C)C(=O)[C@@H](C)N(C)C1=O [Compound P, [(3R,4R,5S)-4-Hydroxy-3-methyl-5-(methylamino)-1-(1,1-dioxo-thiomorpholino)-hexanoic acid]^1[(R)-Me-Sar]^3 cyclosporin A]
	5.5 nM	25 to 50 µM (≈ 32.9 to 65.8 µg/mL)		CC[C@H]1NC(=O)[C@@H]([C@H](O)[C@H](C)CCN(C)CCC(F)(F)F)N(C)C(=O)[C@@H](C(C)C)N(C)C(=O)[C@@H](CC(C)C)N(C)C(=O)[C@@H](CC(C)C)N(C)C(=O)[C@H](C)NC(=O)[C@@H](C)NC(=O)[C@@H](CC(C)C)N(C)C(=O)[C@@H](C(C)C)NC(=O)[C@H](CC(C)C)N(C)C(=O)[C@@H](C)N(C)C1=O [Compound DN, [(3R,4R,5S)-4-Hydroxy-3-methyl-5-(methylamino)-1-({3,3,3-trifluoropropyl}-methyl-amino)-hexanoic acid]^1[(R)-methyl-Sar]^3 cyclosporin A]
	5.7 nM		> 100 µM	CC[C@H]1NC(=O)[C@@H]([C@H](O)[C@H](C)CCN(C)Cc2ccncc2)N(C)C(=O)[C@@H](C(C)C)N(C)C(=O)[C@@H](CC(C)C)N(C)C(=O)[C@@H](CC(C)C)N(C)C(=O)[C@H](C)NC(=O)[C@@H](C)NC(=O)[C@@H](CC(C)C)N(C)C(=O)[C@@H](C(C)C)NC(=O)[C@H](CC(C)C)N(C)C(=O)[C@@H](C)N(C)C1=O [Compound DL, [(3R,4R,5S)-4-Hydroxy-3-methyl-5-(methylamino)-1-({pyridin-4-ylmethyl}-methylamino)-hexanoic acid]^1[(R)-methyl-Sar]^3 cyclosporin A]
42 nM				CCC1NC(=O)C(C(O)C(C)CCNCCc2c[nH]cn2)N(C)C(=O)C(C(C)C)N(C)C(=O)C(CC(C)C)N(C)C(=O)C(CC(C)C)N(C)C(=O)C(C)NC(=O)C(C)NC(=O)C(CC(C)C)N(C)C(=O)C(C(C)C)NC(=O)C(CC(C)C)N(C)C(=O)C(C)N(C)C1=O [Compound AK, [(3R,4R,5S)-4-Hydroxy-3-methyl-5-(methylamino)-1-(2-{1H-imidazol-4-yl}-ethylamino)-hexanoic acid]^1[(R)-methyl-Sar]^3 cyclosporin A]
120 nM				CC[C@H]1NC(=O)[C@@H]([C@H](O)[C@H](C)CCN2CCNC(=O)C2)N(C)C(=O)[C@@H](C(C)C)N(C)C(=O)[C@@H](CC(C)C)N(C)C(=O)[C@@H](CC(C)C)N(C)C(=O)[C@H](C)NC(=O)[C@@H](C)NC(=O)[C@@H](CC(C)C)N(C)C(=O)[C@@H](C(C)C)NC(=O)[C@H](CC(C)C)N(C)C(=O)CN(C)C1=O [Compound NN]
	13 nM	> 100 µM		CC[C@H]1NC(=O)[C@@H]([C@H](O)[C@H](C)CCN(C)CC(C)C#N)N(C)C(=O)[C@@H](C(C)C)N(C)C(=O)[C@@H](CC(C)C)N(C)C(=O)[C@@H](CC(C)C)N(C)C(=O)[C@H](C)NC(=O)[C@@H](C)NC(=O)[C@@H](CC(C)C)N(C)C(=O)[C@@H](C(C)C)NC(=O)[C@H](CC(C)C)N(C)C(=O)[C@@H](C)N(C)C1=O (stereo partly drawn) [Compound DK, [(3R,4R,5S)-1-({2-Cyano-propyl}-methyl-amino)-4-hydroxy-3-methyl-5-(methylamino)-hexanoic acid]^1[(R)-methyl-Sar]^3 cyclosporin A]
	9.1 nM		> 100 µM	CC[C@H]1NC(=O)[C@@H]([C@H](O)[C@H](C)CCN(C)Cc2cnccn2)N(C)C(=O)[C@@H](C(C)C)N(C)C(=O)[C@@H](CC(C)C)N(C)C(=O)[C@@H](CC(C)C)N(C)C(=O)[C@H](C)NC(=O)[C@@H](C)NC(=O)[C@@H](CC(C)C)N(C)C(=O)[C@@H](C(C)C)NC(=O)[C@H](CC(C)C)N(C)C(=O)[C@@H](C)N(C)C1=O [Compound DH, [(3R,4R,5S)-4-Hydroxy-3-methyl-5-(methylamino)-1-({pyrazin-2-ylmethyl}-methylamino)-hexanoic acid]^1[(R)-methyl-Sar]^3 cyclosporin A]
